What was measured:
[1] = tested on: neurons from hippocampi of E18 rat embryos; test: Neurite growth length (% NTL) in cultured E18 rat hippocampal neurons, 9-point dose response, 48 hours; type: cell-based; conditions: Rattus norvegicus, Neuron, 48 h; for activity at 0.078 µM: 78 nM; for activity at 0.156 µM: 156 nM; for activity at 0.312 µM: 312 nM; for activity at 0.625 µM: 625 nM
Procedure: PRE-COATING CULTURE PLATES: On the day before the experiment, 96-well plates were pre-coated by plating 50 μl of Poly-D-lysine solution (PDL, 0.5 mg/mL) in each well. The next morning, the plates were washed four or five times with HBSS or PBS (150 μl/rinse), then left in buffer until cell plating
PREPARING THE CELLS: A timed pregnant rat carrying E18 embryos was euthanized using an IACUC approved method. In a laminar flow hood, the embryos were removed and placed in a petri dish containing Hank's Balanced Salt Solution (HBSS) with 20 mM HEPES, pH 7.3. Pup brains were dissected (see Meberg et al., 2003) and hippocampi were collected in 15 mL a conical tube containing Hibernate E with SM1 (2% v/v).
Dissociation media was prepared by combining 4.5 mL of Hibernate E (without SM1) with 0.5 mL of trypsin and 100 μl of DNAse solution. The medium over the hippocampi was carefully removed and replaced with dissociation solution, then incubated at 37° C. for 15-20 minutes, occasionally swirling the tube.
Using flame polished cotton plugged Pasteur pipettes, the dissociation media was removed, and then 5 mL of Hibernate E containing SM1 were added. The tube was swirled to thoroughly wash the tissue. The tissue was allowed to settle to the bottom of the tube, and the rinse solution was carefully removed. This step was repeated 5 times to dilute out trypsin and DNAse and remove any debris from lysed cells.
The final rinse media was removed from the tube and 1 pipette-full (1-2 mL) of Hibernate E with SM1 was added. Using the flame-polished Pasteur pipette (pre-wetted with rinse media), the tube was triturated until all cells had dissociated and no visible chunks of tissue remained. Fewer than ten triturations were typically performed. The volume was adjusted to 8-12 mL using Hibernate E containing SM1, the well was mixed and cell concentration was determined.
PLATING: The cells were diluted in culture media (NbActiv4 Cell-culture media) to a final concentration of 10,000 cells/mL. The HBSS was aspirated from PDL coated plates, and 150 μL of cell solution was loaded in the middle 48 wells at 1500 cells per well. Water was loaded in the outer wells to decrease evaporation from edge wells. Cells were allowed to adhere for 2 hours in tissue culture incubator prior to treatment.
TREATMENT: Compounds were diluted to various concentrations to provide 9 dose response concentrations of 20 μM, 10 μM, 5, μM, 2.5 μM, 1.25 μM, 0.625 μM, 0.3125 μM, 0.15625 μM, and 0.078125 μM. The plates were cultured for 48 hours, exposed to the compound at the various dose response concentrations.
FIXING THE CULTURES: The culture medium was removed from the plates and immediately replaced with 100-200 μl of warm (37° C.) 4% paraformaldehyde (PFA) solution in phosphate-buffered saline (PBS). The cells were fixed for 15-20 minutes at room temperature, and then rinsed with PBS (200 μl/well×3).
STAINING AND IMAGING: The PBS was removed and replaced with 100 μl of blocking/permeabilization buffer (PBS, 0.2% fish gelatin, 0.03% Triton X-100, 0.02% NaN3), then incubated overnight at 4° C. To this was added 100 μl of primary antibody solution (mouse anti-Beta III tubulin in blocking buffer) and incubate overnight at 4° C. The wells were rinsed with PBS (200 μl×3), which was then removed and replaced with 100 μl of secondary antibody solution (Goat anti-mouse Alexa 488, 10 μg/ml Hoechst 33342, 0.2% fish gelatin, 0.02% azide, in PBS). The plate was shaken gently on a rotating shaker for 2 hours, then rinsed with PBS (200 μl×5).
The plate was imaged using a Cellomics ArrayScan VTI in 2 different channels for nuclear staining (Hoechst) and cell body/neurite staining (βIII-tubulin). Typically, nine fields per well were imaged with a 5× objective and automatically traced by the Neuronal Profiling Bioapplication. To get reproducible results, at least 200-300 valid neurons were measured per condition. […]

[2] = tested on: Primary Neurons; test: HCS neurite outgrowth assay (High Content Screening with Primary Neurons); type: cell-based; conditions: Primary neuron

Row | Compound | activity at 0.078 µM [1] [%] | activity at 0.156 µM [1] [%] | activity at 0.312 µM [1] [%] | activity at 0.625 µM [1] [%] | activity at 1.25 µM [1] [%] | activity at 2.5 µM [1] [%] | activity at 5 µM [1] [%] | activity at 10 µM [1] [%] | activity at 20 µM [1] [%] | EC50 [2] [µM]
1 | COc1ccc(O)c(C(=O)c2ccc(C(=O)N[C@@H]3CNC[C@H]3NC(=O)c3ccnc(N)n3)cc2)c1 [Example A76, 2-amino-N-[(3R,4R)-4-[4-(2-hydroxy-5-methoxybenzoyl)benzamido]pyrrolidin-3-yl]pyrimidine-4-carboxamide] | 131 | 121 | 140 | 156 | 169 | 207 | 317 | 558 | 692 | 8.37
2 | COc1ccc(O)c(C(=O)c2ccc(C(=O)N[C@@H]3CNC[C@H]3NC(=O)c3ccnc4[nH]cnc34)cc2)c1F [Example A48, N-[(3R,4R)-4-[4-(2-fluoro-6-hydroxy-3-methoxybenzoyl)benzamido]pyrrolidin-3-yl]-3H-imidazo[4,5-b]pyridine-7-carboxamide] | 109 | 117 | 116 | 120 | 144 | 219 | 332 | 461 | 421 | 6.08
3 | COc1ccc(O)c(C(=O)c2ccc(C(=O)N[C@@H]3CNC[C@H]3NC(=O)c3ccnc4[nH]ccc34)cc2)c1F [Example A56, N-[(3R,4R)-4-[4-(2-fluoro-6-hydroxy-3-methoxybenzoyl)benzamido]pyrrolidin-3-yl]-1H-pyrrolo[2,3-b]pyridine-4-carboxamide] | 128 | 137 | 131 | 133 | 165 | 196 | 267 | 375 | 488 | 8.54
4 | COc1ccc(O)c(C(=O)c2ccc(C(=O)N[C@@H]3CNC[C@H]3NC(=O)Cc3cn[nH]c3)cc2)c1F [Example A47, 4-(2-fluoro-6-hydroxy-3-methoxybenzoyl)-N-[(3R,4R)-4-[2-(1H-pyrazol-4-yl)acetamido]pyrrolidin-3-yl]benzamide] | 100 | 99.3 | 99.7 | 96.8 | 104 | 112 | 122 | 128 | 162 | 7.43
5 | Cc1ccc(C(=O)c2ccc(C(=O)N[C@@H]3CNC[C@H]3NC(=O)c3ccncc3)cc2)c(O)c1 [Example A81, N-[(3R,4R)-4-[4-(2-hydroxy-4-methylbenzoyl)benzamido]pyrrolidin-3-yl]pyridine-4-carboxamide] | 124 | 120 | 127 | 128 | 128 | 125 | 130 | 113 | 116 | 5.22
6 | COc1ccc(O)c(C(=O)c2ccc(C(=O)N[C@@H]3c4ccccc4C[C@H]3NC(=O)c3ccncc3)cc2)c1F [Example A14, N-[(1R,2R)-1-[4-(2-fluoro-6-hydroxy-3-methoxybenzoyl)benzamido]-2,3-dihydro-1H-inden-2-yl]pyridine-4-carboxamide] | 105 | 111 | 118 | 119 | 127 | 126 | 140 | 154 | 175 | > 20
7 | O=C(N[C@@H]1CNC[C@H]1NC(=O)c1ccc2[nH]ncc2c1)c1ccc(C(=O)c2c(O)cccc2F)cc1 [Example A49, N-[(3R,4R)-4-[4-(2-fluoro-6-hydroxybenzoyl)benzamido]pyrrolidin-3-yl]-1H-indazole-5-carboxamide] | 107 | 99.5 | 101 | 112 | 139 | 200 | 298 | 322 | 207 | 2.46
8 | Cc1cccc(C(=O)c2ccc(C(=O)N[C@@H]3CNC[C@H]3NC(=O)c3ccnc(N)n3)cc2)c1O [Example A74, 2-amino-N-[(3R,4R)-4-[4-(2-hydroxy-3-methylbenzoyl)benzamido]pyrrolidin-3-yl]pyrimidine-4-carboxamide] | 101 | 103 | 103 | 106 | 105 | 119 | 121 | 137 |  | 4.5
9 | COc1ccc(O)c(C(=O)c2ccc(C(=O)N[C@@H]3CNC[C@H]3NC(=O)c3ccncn3)cc2)c1F [Example A41, N-[(3R,4R)-4-[4-(2-fluoro-6-hydroxy-3-methoxybenzoyl)benzamido]pyrrolidin-3-yl]pyrimidine-4-carboxamide] | 91.3 | 88.5 | 86.2 | 87 | 95.9 | 102 | 124 | 152 | 190 | 11
10 | O=C(N[C@@H]1CNC[C@H]1NC(=O)c1ccc(C(=O)c2ccc(Cl)cc2O)cc1)c1ccncc1 [Example A79, N-[(3R,4R)-4-[4-(4-chloro-2-hydroxybenzoyl)benzamido]pyrrolidin-3-yl]pyridine-4-carboxamide] | 116 | 109 | 117 | 118 | 111 | 116 | 112 | 107 | 94.7 | > 20
11 | COc1ccc(O)c(C(=O)c2ccc(C(=O)Nc3ccccc3NC(=O)c3ccncc3)cc2)c1F [Example A5, N-{2-[4-(2-fluoro-6-hydroxy-3-methoxybenzoyl)benzamido]phenyl}pyridine-4-carboxamide] | 97.8 | 102 | 97.2 | 102 | 102 | 113 | 116 | 124 | 132 | 10.4
12 | COc1ccc(O)c(C(=O)c2ccc(C(=O)N[C@@H]3CNC[C@H]3NC(=O)c3ccnc(N)c3)cc2)c1F [Example A54, 2-amino-N-[(3R,4R)-4-[4-(2-fluoro-6-hydroxy-3-methoxybenzoyl)benzamido]pyrrolidin-3-yl]pyridine-4-carboxamide] | 83.1 | 79.9 | 84.3 | 84.1 | 94.7 | 105 | 120 | 151 | 228 | > 20

— patent US11926613B2, “Kinase inhibitors for the treatment of central and peripheral nervous system disorders” (UNIVERSITY OF MIAMI, priority 2017, dated 2024)
